Data reported in EP0800516B1, “FIBRINOGEN RECEPTOR ANTAGONISTS HAVING SUBSTITUTED (b)-AMINO ACID RESIDUES AND PHARMACEUTICAL COMPOSITIONS COMPRISING THE SAME” (Nippon Steel Corporation, priority 1994, dated 1996).

Test system: Human Platelet Aggregation
Test: in vitro human platelet aggregation using PRP (collagen-induced, light transmittance)
Type: cell-based
Settings: aggregation induced with collagen (final concentration: 5 µ g/ml), 37°C
Source text: (Measurement of in vitro Human Platelet Aggregation using PRP)
Healthy male volunteers who had not taken any medicines for at least two weeks were selected as subjects. Blood was collected from the forearm vein of each subject on an empty stomach using a #19 needle and a plastic syringe preliminarily charged with 1/10 volume of a 3.8% sodium citrate solution. Immediately after the blood collection, the syringe was shaken gently to mix the blood with the sodium citrate solution. The mixed blood was centrifuged (1100 rpm, 250 g) at room temperature for 15 minutes and the rotation was stopped without applying the brake. Then, the supernatant was collected with a Komagome type pipette to obtain platelet-rich plasma (PRP). The PRP was stored at room temperature. The blood remaining after centrifuging was further centrifuged (3500 rpm, 1500 g) at room temperature for 15 minutes and the rotation was stopped without applying the brake. The supernatant was collected to obtain platelet-poor plasma (PPP). After the preparation of the PRP, the number of platelets was counted and only samples containing more than 2 x 10^8 of platelets per milliliter were subjected to the following experiments.
Platelet aggregation was measured using an 8-channel platelet aggregation measuring instrument (Hematracer, Nikoh Bioscience, Tokyo, Japan) on the basis of the change in light transmittance through the PRP. First, the PPP and PRP (each 200µl) were placed in glass cuvettes and incubated at 37°C . Thereafter, the transmittance was measured. The transmittance of the PPP was determined as 100% and that of the PRP as 0%. Then, 10µl of physiological saline or a sample-containing physiological saline was added to the PRP and incubated at 37°C for one minute. A collagen solution (10 µ l) at a concentration of […] was added (final concentration: 5 µ g/ml) to induce aggregation and thereafter the transmittance was measured over 7 minutes. After aggregation with collagen and ADP was confirmed, only those samples in which the maximum aggregation with collagen was at least 70% were subjected to the experiment.
The sample was dissolved in physiological saline to give a concentration of 2.2 x 10 ^-2 M and a 2-fold dilution series was prepared for use in the experiments. The samples insoluble in the physiological saline were dissolved in physiological saline containing 10% DMSO (dimethyl sulfoxide).
The results were calculated as follows: [formula]
A graph was constructed by plotting the percent aggregation inhibition against the sample concentration and the concentration at which the aggregation was inhibited by 50% (IC50) was calculated from the graph.

Compound | IC50
CC(C)(C(=O)N1CCC(CC(=O)O)CC1)C(NC(=O)c1ccc(C(=N)N)cc1)c1ccc(O)cc1 (stereo not drawn) [Example 27, N-(N-4-amidinobenzoyl-β-p-hydroxyphenyl-α, α-dimethyl-β-alanyl)-4-piperidineacetic acid] | 200 nM
CC(C)(C(=O)N1CCC(CC(=O)O)CC1)C(NC(=O)c1ccc(C(=N)N)cc1)c1cccc(O)c1 (stereo not drawn) [Example 28, N-(N-4-amidinobenzoyl-β-m-hydroxyphenyl-α, α-dimethyl-β-alanyl)-4-piperidineacetic acid] | 76 nM
CC=CC(NC(=O)c1ccc(C(=N)N)cc1)C(C)(C)C(=O)N1CCC(CC(=O)O)CC1 (stereo not drawn) [Example 29, N-(N-4-amidinobenzoyl-β-1-propenyl-α,α-dimethyl-β-alanyl)-4-piperidineacetic acid] | 100 nM
CCCCC(NC(=O)c1ccc(C(=N)N)cc1)C1(C(=O)N2CCC(CC(=O)O)CC2)CCCCC1 (stereo not drawn) [Example 30, N-(((N-4-amidinobenzoyl)-1-amino)-1-pentyl-1-cyclohexane-carbonyl)-4-piperidineacetic acid] | 160 nM
CN(C)c1ccc(C(NC(=O)c2ccc(C(=N)N)cc2)C(C)(C)C(=O)N2CCC(CC(=O)O)CC2)cc1 (stereo not drawn) [Example 31, N-(N-4-amidinobenzoyl-β-p-N,N-dimethylaminophenyl-α, α-dimethyl-β-alanyl)-4-piperidineacetic acid] | 470 nM
CCCCc1ccc(C(NC(=O)c2ccc(C(=N)N)cc2)C(C)(C)C(=O)N2CCC(CC(=O)O)CC2)cc1 (stereo not drawn) [Example 32, N-(N-4-amidinobenzoyl-β-p-n-butylphenyl-α, α-dimethyl-β-alanyl)-4-piperidineacetic acid] | 150 nM
CCCCC(NC(=O)c1ccc(C(=N)N)cc1F)C(C)(C)C(=O)N1CCC(CC(=O)O)CC1 (stereo not drawn) [Example 33, N-(N-4-amidino-2-fluorobenzoyl-β-n-butyl-α ,α-dimethyl-β-alanyl)-4-piperidineacetic acid] | 73 nM
CC(C)(C(=O)N1CCC(CC(=O)O)CC1)C(NC(=O)c1ccc(C(=N)N)cc1Cl)c1ccccc1 (stereo not drawn) [Example 34, N-(N-4-amidino-2-chlorobenzoyl-β-phenyl-α, α-dimethyl-β-alanyl)-4-piperidineacetic acid] | 360 nM
CC(C)(C(=O)N1CCC(CC(=O)O)CC1)C(CCc1cccc(O)c1)NC(=O)c1ccc(C(=N)N)cc1 (stereo not drawn) [Example 37, N-(N-4-amidinobenzoyl-β-m-hydroxyphenethyl-α, α-dimethyl-β-alanyl)-4-piperidineacetic acid] | 190 nM
C#CC(NC(=O)c1ccc(C(=N)N)cc1)C(C)(C)C(=O)N1CCC(CC(=O)O)CC1 (stereo not drawn) [Example 38, N-(N-4-amidinobenzoyl-β-ethynyl-α,α-dimethyl-β-alanyl)-4-piperidineacetic acid] | 150 nM
CCC(NC(=O)c1ccc(C(=N)N)cc1F)C(C)(C)C(=O)N1CCC(CC(=O)O)CC1 (stereo not drawn) [Example 39, N-(N-4-amidino-2-fluorobenzoyl-β-ethyl-α, α-dimethyl-β-alanyl)-4-piperidineacetic acid] | 61 nM
CC(NC(=O)c1ccc(C(=N)N)cc1F)C(C)(C)C(=O)N1CCC(CC(=O)O)CC1 (stereo not drawn) [Example 40, N-(N-4-amidino-2-fluorobenzoyl-β-methyl-α, α-dimethyl-β-alanyl)-4-piperidineacetic acid] | 75 nM
